Reference: PubChem BioAssay AID248 (DTP/NCI, 2004)
Where “and” joins values, the source holds several entries; their conditions need not be identical. Identical values can stand only once. Toxic doses and inconclusive results are not listed. Cut-off read from the data, not from the text of the source: active = T/C of 150% or more; inactive = T/C below 125%.

Tested on: L1210 leukemia ip in BDF1 mice, survival T/C
Assay: NCI In Vivo Anticancer Drug Screen. Data for tumor model L1210 Leukemia (intraperitoneal) in B6D2F1 (BDF1) mice
Details: endpoint: mean survival time, higher = longer survival
Method in brief: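 Value reflects the ratio of survival in compound-treated mice to survival in vehicle-treated controls, with both groups carrying the same transplanted tumor.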

[1] = dose: 100.0 mg/kg/injection, schedule: Q04DX002 (ip), vehicle: Klucel (hydroxypropylcellulose) (HPC)
[2] = dose: 200.0 mg/kg/injection, schedule: Q04DX002 (ip), vehicle: Klucel (hydroxypropylcellulose) (HPC)
[3] = dose: 100.0 mg/kg/injection, schedule: Q01DX001 (ip), vehicle: Klucel (hydroxypropylcellulose) (HPC)
[4] = dose: 200.0 mg/kg/injection, schedule: Q01DX001 (ip), vehicle: Klucel (hydroxypropylcellulose) (HPC)
[5] = dose: 100.0 mg/kg/injection, schedule: Q01DX009 (ip), vehicle: Klucel (hydroxypropylcellulose) (HPC)
[6] = dose: 200.0 mg/kg/injection, schedule: Q01DX009 (ip), vehicle: Klucel (hydroxypropylcellulose) (HPC)
[7] = dose: 400.0 mg/kg/injection, schedule: Q01DX009 (ip), vehicle: Klucel (hydroxypropylcellulose) (HPC)
[8] = dose: 25.0 mg/kg/injection, schedule: Q01DX009 (ip), vehicle: saline with Tween-80
[9] = dose: 50.0 mg/kg/injection, schedule: Q01DX009 (ip), vehicle: saline with Tween-80
[10] = dose: 100.0 mg/kg/injection, schedule: Q01DX009 (ip), vehicle: saline with Tween-80
[11] = dose: 100.0 mg/kg/injection, schedule: Q04DX003 (ip), vehicle: saline
[12] = dose: 200.0 mg/kg/injection, schedule: Q04DX003 (ip), vehicle: saline
[13] = dose: 400.0 mg/kg/injection, schedule: Q04DX003 (ip), vehicle: saline
[14] = dose: 50.0 mg/kg/injection, schedule: Q01DX001 (ip), vehicle: saline
[15] = dose: 100.0 mg/kg/injection, schedule: Q01DX001 (ip), vehicle: saline
[16] = dose: 200.0 mg/kg/injection, schedule: Q01DX001 (ip), vehicle: saline
[17] = dose: 400.0 mg/kg/injection, schedule: Q01DX001 (ip), vehicle: saline
[18] = dose: 100.0 mg/kg/injection, schedule: Q04DX003 (ip), vehicle: Klucel (hydroxypropylcellulose) (HPC)
[19] = dose: 200.0 mg/kg/injection, schedule: Q04DX003 (ip), vehicle: Klucel (hydroxypropylcellulose) (HPC)
[20] = dose: 400.0 mg/kg/injection, schedule: Q04DX003 (ip), vehicle: Klucel (hydroxypropylcellulose) (HPC)

Measured: T/C

Cc1cc(C)c2c(c1)C/C2=N/N=C1/Cc2cc(C)cc(C)c21
inactive: dose: 50.0 mg/kg/injection, schedule: Q04DX002 (ip), vehicle: Klucel (hydroxypropylcellulose) (HPC) 120 % of control | [1] 100 % of control | [2] 92 % of control

CCN=C(N)SCCS(=O)(=O)O
inactive: dose: 100.0 mg/kg/injection, schedule: Q04DX002 (ip), vehicle: saline 98 % of control | dose: 200.0 mg/kg/injection, schedule: Q04DX002 (ip), vehicle: saline 95 % of control | dose: 400.0 mg/kg/injection, schedule: Q04DX002 (ip), vehicle: saline 92 % of control

O=C1/C(=C\c2cccc3ccccc23)N2CCC1CC2
inactive: [1] 100 % of control | [2] 96 % of control | dose: 400.0 mg/kg/injection, schedule: Q04DX002 (ip), vehicle: Klucel (hydroxypropylcellulose) (HPC) 104 % of control

CCCCCCCCCCCCCCCCC(=O)O.[Pb]
inactive: dose: 75.0 mg/kg/injection, schedule: Q01DX001 (ip), vehicle: other 94 % of control | dose: 150.0 mg/kg/injection, schedule: Q01DX001 (ip), vehicle: other 92 % of control | dose: 300.0 mg/kg/injection, schedule: Q01DX001 (ip), vehicle: other 92 % of control

O=[N+]([O-])c1cccc(-c2cc(-c3cccs3)cc(-c3ccccc3)n2)c1
inactive: dose: 100.0 mg/kg/injection, schedule: Q04DX002 (ip), vehicle: gum acacia 93 % of control | dose: 200.0 mg/kg/injection, schedule: Q04DX002 (ip), vehicle: gum acacia 93 % of control | dose: 400.0 mg/kg/injection, schedule: Q04DX002 (ip), vehicle: gum acacia 93 % of control

COc1cc2cc3c4cc(OC)c(OC)cc4cc[n+]3cc2cc1OC
inactive: dose: 10.0 mg/kg/injection, schedule: Q01DX009 (ip), vehicle: saline 92 % of control | dose: 20.0 mg/kg/injection, schedule: Q01DX009 (ip), vehicle: saline 116 % of control | dose: 40.0 mg/kg/injection, schedule: Q01DX009 (ip), vehicle: saline 118 % of control | dose: 80.0 mg/kg/injection, schedule: Q01DX009 (ip), vehicle: saline 110 % of control | dose: 160.0 mg/kg/injection, schedule: Q01DX009 (ip), vehicle: saline 113 % of control | dose: 320.0 mg/kg/injection, schedule: Q01DX009 (ip), vehicle: saline 93 % of control

O=c1[nH]c(C(F)(F)F)c(CCCCc2ccccc2)c(=O)[nH]1
inactive: dose: 50.0 mg/kg/injection, schedule: Q01DX001 (ip), vehicle: Klucel (hydroxypropylcellulose) (HPC) 105 % of control | [3] 94 % of control | [4] 90 % of control

COc1cccc(OC)c1OC(=O)Nc1ccccc1F
inactive: [5] 105 % of control | [6] 106 % of control | [7] 106 % of control

NC(=S)N/N=C/c1cc(-c2cccc(N)c2)ccn1
inactive: dose: 6.25 mg/kg/injection, schedule: Q01DX009 (ip), vehicle: saline with Tween-80 112 % of control | dose: 12.5 mg/kg/injection, schedule: Q01DX009 (ip), vehicle: saline with Tween-80 114 % of control | [8] 114 % of control | [9] 111 % of control | [10] 114 % of control

CC(=O)CC(=O)NCc1ccncc1
inactive: dose: 100.0 mg/kg/injection, schedule: Q01DX009 (ip), vehicle: saline 97 % of control | [11] 100 % of control | dose: 200.0 mg/kg/injection, schedule: Q01DX009 (ip), vehicle: saline 105 % of control | [12] 102 % of control | dose: 400.0 mg/kg/injection, schedule: Q01DX009 (ip), vehicle: saline 95 % of control | [13] 97 % of control

O=C1C(c2ccccc2)=CC(c2ccccc2)=C1c1ccccc1
inactive: dose: 50.0 mg/kg/injection, schedule: Q01DX001 (ip), vehicle: carboxymethylcellulose (CMC) 91 % of control | dose: 100.0 mg/kg/injection, schedule: Q01DX001 (ip), vehicle: carboxymethylcellulose (CMC) 91 % of control | dose: 200.0 mg/kg/injection, schedule: Q01DX001 (ip), vehicle: carboxymethylcellulose (CMC) 94 % of control | dose: 400.0 mg/kg/injection, schedule: Q01DX001 (ip), vehicle: carboxymethylcellulose (CMC) 94 % of control

NCCCc1c(-c2ccccc2)nc(N)[nH]c1=O
inactive: [14] 108 % of control | [15] 110 % of control | [16] 98 % of control

Cc1cccc(Cl)c1N=Nc1sc(N)nc1C
inactive: dose: 75.0 mg/kg/injection, schedule: Q01DX001 (ip), vehicle: saline 105 % of control | dose: 150.0 mg/kg/injection, schedule: Q01DX001 (ip), vehicle: saline 105 % of control

CN(C)c1ccc(-c2cc[n+](C)cc2)cc1
inactive: dose: 3.13 mg/kg/injection, schedule: Q04DX003 (ip), vehicle: saline 101 % of control | dose: 6.25 mg/kg/injection, schedule: Q04DX003 (ip), vehicle: saline 101 % of control | dose: 12.5 mg/kg/injection, schedule: Q04DX003 (ip), vehicle: saline 104 % of control

CCCCn1c(O)c(C=N)c(=O)n(CCCC)c1=O
inactive: [8] 101 % of control | [9] 90 % of control | [10] 101 % of control and 86 % of control | dose: 100.0 mg/kg/injection, schedule: Q04DX003 (ip), vehicle: saline with Tween-80 89 % of control | dose: 200.0 mg/kg/injection, schedule: Q04DX003 (ip), vehicle: saline with Tween-80 94 % of control | dose: 400.0 mg/kg/injection, schedule: Q04DX003 (ip), vehicle: saline with Tween-80 89 % of control

CC(C)(C)NC(=O)Oc1cccnc1
inactive: [5] 93 % of control | [6] 102 % of control

C=C1CC[N+]2(C)CCCC12 (stereo not given)
inactive: dose: 12.5 mg/kg/injection, schedule: Q01DX009 (ip), vehicle: saline 100 % of control | dose: 25.0 mg/kg/injection, schedule: Q01DX009 (ip), vehicle: saline 113 % of control | dose: 50.0 mg/kg/injection, schedule: Q01DX009 (ip), vehicle: saline 95 % of control and 91 % of control

COC1OCCCC1OC(=O)c1ccccc1 (stereo not given)
inactive: [14] 109 % of control | [15] 103 % of control | [16] 105 % of control | [17] 94 % of control

O=C(O)C1CCCC2C(O)CCC(O)C12 (stereo not given)
inactive: [15] 107 % of control | [11] 105 % of control | [16] 93 % of control | [12] 111 % of control | [17] 91 % of control | [13] 105 % of control

Cc1c(Cl)cccc1NC(=O)c1cccc(C(=O)Nc2cccc(Cl)c2C)c1
inactive: [5] 112 % of control | [18] 91 % of control | [6] 93 % of control | [19] 90 % of control | [7] 88 % of control | [20] 98 % of control

CC(=O)c1ccc(Cl)c([N+](=O)[O-])c1
inactive: [3] 91 % of control | [5] 105 % of control | [4] 97 % of control | [6] 100 % of control | dose: 400.0 mg/kg/injection, schedule: Q01DX001 (ip), vehicle: Klucel (hydroxypropylcellulose) (HPC) 96 % of control

S=c1[nH]n(-c2ccccc2)c(=S)s1
inactive: [15] 100 % of control | [16] 105 % of control

NCCCCCCNC(=O)CCCCC(=O)NCCCCCCN
inactive: dose: 8.0 mg/kg/injection, schedule: Q01DX Z (ip), vehicle: water 88 % of control | dose: 16.0 mg/kg/injection, schedule: Q01DX Z (ip), vehicle: water 86 % of control | dose: 32.0 mg/kg/injection, schedule: Q01DX Z (ip), vehicle: water 89 % of control | dose: 64.0 mg/kg/injection, schedule: Q01DX Z (ip), vehicle: saline 90 % of control | dose: 64.0 mg/kg/injection, schedule: Q01DX Z (ip), vehicle: water 91 % of control

CCOC(=O)c1c[nH]c(C)c1C
inactive: [18] 104 % of control | [19] 109 % of control | [20] 105 % of control

Cc1cc2nc3[nH]c4c(Cl)cc(Cl)cc4c3nc2cc1C
inactive: [15] 91 % of control | [16] 89 % of control | [17] 89 % of control
